Where two headings read alike, the source gives them in different places.

In US9681664B2, “Macrocyclic picolinamides as fungicides” (Dow Agrosciences LLC, priority 2012, dated 2017) one finds pest or weed control data, which are given here for 25 molecules.

The subject of assay [1] is Mycosphaerella graminicola; Anamorph: Septoria tritici. Description: Leaf blotch of wheat (SEPTTR) disease control on wheat seedlings. In kind it is in vivo. The conditions noted are these: Zymoseptoria tritici, High volume application, 100 ppm. The method, then:
Technical grades of materials were dissolved in acetone, which were then mixed with nine volumes of water containing 110 ppm Triton X-100. The fungicide solutions were applied onto wheat seedlings using an automated booth sprayer to run-off. All sprayed plants were allowed to air dry prior to further handling. All fungicides were evaluated using the aforementioned method for their activity vs. all target diseases. Wheat leaf blotch and brown rust activity were also evaluated using track spray applications, in which case the fungicides were formulated as EC formulations, containing 0.1% Trycol 5941 in the spray solutions. Wheat plants (variety Yuma) were grown from seed in a greenhouse in 50% mineral soil/50% soil-less Metro mix until the first leaf was fully emerged, with 7-10 seedlings per pot. These plants were inoculated with an aqueous spore suspension of Septoria tritici either prior to or after fungicide treatments. After inoculation the plants were kept in 100% relative humidity (one day in a dark dew chamber followed by two to three days in a lighted dew chamber at 20° C.) to permit spores to germinate and infect the leaf. The plants were then transferred to a greenhouse set at 20° C. for disease to develop. When disease symptoms were fully expressed on the 1st leaves of untreated plants, infection levels were assessed on a scale of 0 to 100 percent disease severity. Percent disease control was calculated using the ratio of disease severity on treated plants relative to untreated plants.

Assay [2] has as its system Puccinia triticina; Synonym: Puccinia recondite f. sp. tritici. Description: Wheat brown rust (PUCCRT) disease control on wheat seedlings. Particulars: Puccinia triticina, High volume application, 100 ppm. In kind it is in vivo. As to the method: Technical grades of materials were dissolved in acetone, which were then mixed with nine volumes of water containing 110 ppm Triton X-100. The fungicide solutions were applied onto wheat seedlings using an automated booth sprayer to run-off. All sprayed plants were allowed to air dry prior to further handling. All fungicides were evaluated using the aforementioned method for their activity vs. all target diseases. Wheat leaf blotch and brown rust activity were also evaluated using track spray applications, in which case the fungicides were formulated as EC formulations, containing 0.1% Trycol 5941 in the spray solutions. Wheat plants (variety Yuma) were grown from seed in a greenhouse in 50% mineral soil/50% soil-less Metro mix until the first leaf was fully emerged, with 7-10 seedlings per pot. These plants were inoculated with an aqueous spore suspension of Puccinia triticina either prior to or after fungicide treatments. After inoculation the plants were kept in a dark dew room at 22° C. with 100% relative humidity overnight to permit spores to germinate and infect the leaf. The plants were then transferred to a greenhouse set at 24° C. for disease to develop. Fungicide formulation, application and disease assessment followed the procedures as described in the Example A.

[3] abbreviates: 24 h, 1 Day Protectant, read-out: SEPTTR 1DP disease control.
The mark [4] stands for this setting: 72 h, 3 Day Curative, read-out: SEPTTR 3DC disease control.
The mark [5] stands for this setting: 24 h, 1 Day Protectant, read-out: PUCCRT 1DP disease control.
The mark [6] stands for this setting: 72 h, 3 Day Curative, read-out: PUCCRT 3DC disease control.

Consider `C=C(C)CO[C@H]1[C@H](C)OC(=O)[C@@H](NC(=O)c2nccc(OC)c2O)CCC[C@@H]1OCC(=C)C` [F14, 3-hydroxy-4-methoxy-N-((3S,7S,8S,9S)-9-methyl-7,8-bis((2-methylallyl)oxy)-2-oxooxonan-3-yl)pyridine-2-carboxamide], for which the pest or weed control at 100 ppm is less than 0% in assay [1] (setting [3]), 80 to 100% in assay [1] (setting [4]), 80 to 100% in assay [2] (setting [5]) and 80 to 100% in assay [2] (setting [6]).

For the molecule `COc1ccnc(C(=O)N[C@H]2CCC[C@H](OCc3ccccc3)[C@@H](OCc3ccccc3)[C@H](C)OC2=O)c1O` [F22], the pest or weed control at 100 ppm in assay [1] (setting [3]), in assay [1] (setting [4]), in assay [2] (setting [5]) and in assay [2] (setting [6]) was 80 to 100% each time.

`COc1ccnc(C(=O)N[C@H]2CCC[C@H](OCc3ccccc3)[C@@H](Oc3ccccc3)[C@H](C)OC2=O)c1O` [F23]: the pest or weed control at 100 ppm in assay [1] (setting [3]), in assay [1] (setting [4]), in assay [2] (setting [5]) and in assay [2] (setting [6]) was 80 to 100% in each case.

In the case of `COc1ccnc(C(=O)N[C@H]2CCC[C@H](Oc3ccccc3)[C@@H](OCc3ccccc3)[C@H](C)OC2=O)c1O` [F24], the pest or weed control at 100 ppm in assay [1] (setting [3]), in assay [1] (setting [4]), in assay [2] (setting [5]) and in assay [2] (setting [6]) was 80 to 100% throughout.

As to `COc1ccnc(C(=O)N[C@H]2CCC[C@H](OCC(C)C)[C@@H](Oc3ccccc3)[C@H](C)OC2=O)c1O` [F25], the pest or weed control at 100 ppm in assay [1] (setting [3]), in assay [1] (setting [4]), in assay [2] (setting [5]) and in assay [2] (setting [6]) was 80 to 100% each time.

Take `COc1ccnc(C(=O)N[C@H]2CCC[C@H](Oc3ccccc3)[C@@H](OCC(C)C)[C@H](C)OC2=O)c1O` [F27]: the pest or weed control at 100 ppm in assay [1] (setting [3]), in assay [1] (setting [4]), in assay [2] (setting [5]) and in assay [2] (setting [6]) was 80 to 100% in each case.

Take `COc1ccnc(C(=O)N[C@H]2CCC[C@H](Oc3ccccc3)[C@@H](OCc3ccccc3)[C@H](C)OC2=O)c1OCOC(C)=O` [F32]: the pest or weed control at 100 ppm in assay [1] (setting [3]), in assay [1] (setting [4]), in assay [2] (setting [5]) and in assay [2] (setting [6]) was 80 to 100% each time.

With `COc1ccnc(C(=O)N[C@H]2CCC[C@H](OCC(C)C)[C@@H](OC3CCCC3)[C@H](C)OC2=O)c1O` [F33], the pest or weed control at 100 ppm in assay [1] (setting [3]) was in the range of 0 to 80%; in assay [1] (setting [4]), 80 to 100%; in assay [2] (setting [5]) it was 80 to 100%; in assay [2] (setting [6]) it was 80 to 100%.

Turning to `COc1ccnc(C(=O)N[C@H]2CCC[C@H](OCC(C)C)[C@@H](OCCCc3ccccc3)[C@H](C)OC2=O)c1O` [F40], the pest or weed control at 100 ppm in assay [1] (setting [3]) lay in the range of 0 to 80%; in assay [1] (setting [4]) it was 0 to 80%; in assay [2] (setting [5]), 80 to 100%; in assay [2] (setting [6]), 80 to 100%.

As for `COc1ccnc(C(=O)N[C@H]2CCC[C@H](OCC(C)C)[C@@H](OC(=O)C3CC3)[C@H](C)OC2=O)c1OC(C)=O` [F42], the pest or weed control at 100 ppm in assay [1] (setting [3]), in assay [1] (setting [4]), in assay [2] (setting [5]) and in assay [2] (setting [6]) was 80 to 100% throughout.

In the case of `COc1ccnc(C(=O)N[C@H]2CCC[C@H](OCC(C)C)[C@@H](OCCCc3ccccc3)[C@H](C)OC2=O)c1OCOC(C)=O` [F43], the pest or weed control at 100 ppm in assay [1] (setting [3]), in assay [1] (setting [4]), in assay [2] (setting [5]) and in assay [2] (setting [6]) was 80 to 100% in each case.

Regarding `COc1ccnc(C(=O)N[C@H]2CCC[C@H](Oc3ccc(F)cc3)[C@@H](Oc3ccc(F)cc3)[C@H](C)OC2=O)c1OCOC(C)=O` [F48], the pest or weed control at 100 ppm in assay [1] (setting [3]), in assay [1] (setting [4]), in assay [2] (setting [5]) and in assay [2] (setting [6]) was 80 to 100% in each case.

With `COc1ccnc(C(=O)N[C@H]2CCC[C@H](Oc3ccc(F)cc3)[C@@H](Oc3ccc(F)cc3)[C@H](C)OC2=O)c1OCOC(=O)C(C)C` [F49], the pest or weed control at 100 ppm in assay [1] (setting [3]), in assay [1] (setting [4]), in assay [2] (setting [5]) and in assay [2] (setting [6]) was 80 to 100% throughout.

As to `COc1ccnc(C(=O)N[C@H]2CCC[C@H](OCC(C)C)[C@@H](OCCCC(F)(F)F)[C@H](C)OC2=O)c1OCOC(=O)C(C)C` [F51], the pest or weed control at 100 ppm in assay [1] (setting [3]), in assay [1] (setting [4]), in assay [2] (setting [5]) and in assay [2] (setting [6]) was 80 to 100% each time.

With `COc1ccnc(C(=O)N[C@H]2CCC[C@H](OCC(C)C)[C@@H](OC(=O)C3CC3)[C@H](C)OC2=O)c1OCOC(=O)C(C)C` [F52], the pest or weed control at 100 ppm in assay [1] (setting [3]), in assay [1] (setting [4]), in assay [2] (setting [5]) and in assay [2] (setting [6]) was 80 to 100% in each case.

In the case of `COc1ccnc(C(=O)N[C@H]2CCC[C@H](OCC(C)C)[C@@H](OC/C=C/C(F)(F)F)[C@H](C)OC2=O)c1O` [F53], the pest or weed control at 100 ppm in assay [1] (setting [3]) was in the range of 80 to 100%; in assay [1] (setting [4]), 0 to 80%; in assay [2] (setting [5]) it was 80 to 100%; in assay [2] (setting [6]), 80 to 100%.

`COc1ccc(O[C@H]2CCC[C@H](NC(=O)c3nccc(OC)c3O)C(=O)O[C@@H](C)[C@@H]2Oc2ccc(F)cc2)cc1` [F54]: the pest or weed control at 100 ppm in assay [1] (setting [3]) lay within 80 to 100%; in assay [1] (setting [4]), 0 to 80%; in assay [2] (setting [5]), 80 to 100%; in assay [2] (setting [6]) it was 80 to 100%.

As to `COc1ccnc(C(=O)N[C@H]2CCC[C@H](Oc3ccc(F)cc3)[C@@H](OCC(C)C)[C@H](C)OC2=O)c1O` [F56], the pest or weed control at 100 ppm in assay [1] (setting [3]), in assay [1] (setting [4]), in assay [2] (setting [5]) and in assay [2] (setting [6]) was 80 to 100% throughout.

In the case of `COc1ccc(O[C@H]2[C@H](C)OC(=O)[C@@H](NC(=O)c3nccc(OC)c3O)CCC[C@@H]2OCC(C)C)cc1` [F57], the pest or weed control at 100 ppm in assay [1] (setting [3]), in assay [1] (setting [4]), in assay [2] (setting [5]) and in assay [2] (setting [6]) was 80 to 100% in each case.

Regarding `COc1ccnc(C(=O)N[C@H]2CCC[C@H](OCC(C)C)[C@@H](OC/C=C/C(F)(F)F)[C@H](C)OC2=O)c1OC(C)=O` [F58], the pest or weed control at 100 ppm in assay [1] (setting [3]), in assay [1] (setting [4]), in assay [2] (setting [5]) and in assay [2] (setting [6]) was 80 to 100% throughout.

In the case of `COc1ccc(O[C@H]2CCC[C@H](NC(=O)c3nccc(OC)c3OCOC(C)=O)C(=O)O[C@@H](C)[C@@H]2Oc2ccc(F)cc2)cc1` [F60], the pest or weed control at 100 ppm in assay [1] (setting [3]), in assay [1] (setting [4]), in assay [2] (setting [5]) and in assay [2] (setting [6]) was 80 to 100% in each case.

In the case of `COc1ccnc(C(=O)N[C@H]2CCC[C@H](OCC(C)C)[C@@H](Oc3ccc(F)cc3)[C@H](C)OC2=O)c1OCOC(C)=O` [F61], the pest or weed control at 100 ppm in assay [1] (setting [3]), in assay [1] (setting [4]), in assay [2] (setting [5]) and in assay [2] (setting [6]) was 80 to 100% in each case.

Consider `COc1ccnc(C(=O)N[C@H]2CCC[C@H](OCC(C)C)[C@@H](Oc3ccc(F)cc3)[C@H](C)OC2=O)c1OCOC(=O)C(C)C` [F62], for which the pest or weed control at 100 ppm in assay [1] (setting [3]), in assay [1] (setting [4]), in assay [2] (setting [5]) and in assay [2] (setting [6]) was 80 to 100% in each case.

`COc1ccc(O[C@H]2[C@H](C)OC(=O)[C@@H](NC(=O)c3nccc(OC)c3O)CCC[C@@H]2Oc2ccc(OC)cc2)cc1` [F64]: the pest or weed control at 100 ppm was 0 to 80% in assay [1] (setting [3]), 0 to 80% in assay [1] (setting [4]), 0 to 80% in assay [2] (setting [5]) and less than 0% in assay [2] (setting [6]).

Consider `COc1ccc(O[C@H]2CCC[C@H](NC(=O)c3nccc(OC)c3O)C(=O)O[C@@H](C)[C@@H]2OCC(C)C)cc1` [F65], for which the pest or weed control at 100 ppm in assay [1] (setting [3]) fell in the range of 80 to 100%; in assay [1] (setting [4]), 0 to 80%; in assay [2] (setting [5]), 80 to 100%; in assay [2] (setting [6]), 80 to 100%.
